Measurements as given in PubChem BioAssay (NCI).
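Where inhibition never reached the appropriate level, the endpoint shown equals the highest concentration tested. Otherwise, values were interpolated linearly from a five-concentration, 48-hour dose response in 96-well plates. GI50 = concentration required for 50% inhibition of growth. The concentration for full growth arrest is given as TGI.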

How the values were obtained:
Experiment in all cases: NCI tumour cell line growth inhibition, 48 h
[1] = system: 786-0 renal
[2] = system: A498 renal
[3] = system: A549 NSCLC
[4] = system: ACHN renal
[5] = system: COLO 205 colon
[6] = system: EKVX NSCLC
[7] = system: HCC-2998 colon
[8] = system: HCT-116 colon
[9] = system: HCT-15 colon
[10] = system: HOP-62 NSCLC
[11] = system: HOP-92 NSCLC
[12] = system: HS 578T breast
[13] = system: HT29 colon
[14] = system: IGROV1 ovarian
[15] = system: K-562 leukemia
[16] = system: KM12 colon
[17] = system: LOX IMVI melanoma
[18] = system: M14 melanoma
[19] = system: MALME-3M melanoma
[20] = system: MCF7 breast
[21] = system: MDA-MB-231 breast
[22] = system: MDA-MB-435
[23] = system: MDA-N
[24] = system: NCI-H226 lung
[25] = system: NCI-H23 lung
[26] = system: NCI-H522 lung
[27] = system: NCI/ADR-RES ovarian
[28] = system: OVCAR-3 ovarian
[29] = system: OVCAR-4 ovarian
[30] = system: OVCAR-5 ovarian
[31] = system: OVCAR-8 ovarian
[32] = system: PC-3 prostate
[33] = system: RPMI-8226 leukemia
[34] = system: RXF 393 renal
[35] = system: SF-295 CNS
[36] = system: SF-539 CNS
[37] = system: SK-MEL-2 melanoma
[38] = system: SK-MEL-5 melanoma
[39] = system: SK-OV-3 ovarian
[40] = system: SN12C renal
[41] = system: SNB-75 CNS
[42] = system: T-47D breast
[43] = system: TK-10 renal
[44] = system: U251 CNS
[45] = system: UACC-257 melanoma
[46] = system: UACC-62 melanoma
[47] = system: UO-31 renal
[48] = system: BT-549 breast
[49] = system: CAKI-1 renal
[50] = system: CCRF-CEM leukemia
[51] = system: DU-145 prostate
[52] = system: HL-60(TB) leukemia
[53] = system: MOLT-4 leukemia
[54] = system: NCI-H460 lung
[55] = system: SF-268 CNS
[56] = system: SK-MEL-28 melanoma
[57] = system: SNB-19 CNS
[58] = system: SR leukemia
[59] = system: SW-620 colon

## O=C1CCCc2ccc3c(c21)CC1(Cc2ccccc2C1)C3
[1]
  TGI: > 100 µM
[2]
  TGI: > 100 µM
[3]
  TGI: > 100 µM
[4]
  TGI: 68.9 µM
[5]
  TGI: 52.3 µM
[6]
  TGI: > 100 µM
[7]
  TGI: > 100 µM
[8]
  TGI: 55.7 µM
[9]
  TGI: > 100 µM
[10]
  TGI: > 100 µM
[11]
  TGI: 50.6 µM
[12]
  TGI: > 100 µM
[13]
  TGI: 45 µM
[14]
  TGI: > 100 µM
[15]
  TGI: 30 µM
[16]
  TGI: > 100 µM
[17]
  TGI: > 100 µM
[18]
  TGI: > 100 µM
[19]
  TGI: > 100 µM
[20]
  TGI: > 100 µM
[21]
  TGI: > 100 µM
[22]
  TGI: > 100 µM
[23]
  TGI: 67.2 µM
[24]
  TGI: 67.3 µM
[25]
  TGI: > 100 µM
[26]
  TGI: 74.3 µM
[27]
  TGI: > 100 µM
[28]
  TGI: 98.6 µM
[29]
  TGI: 98.8 µM
[30]
  TGI: > 100 µM
[31]
  TGI: > 100 µM
[32]
  TGI: > 100 µM
[33]
  TGI: 48.1 µM
[34]
  TGI: > 100 µM
[35]
  TGI: > 100 µM
[36]
  TGI: > 100 µM
[37]
  TGI: > 100 µM
[38]
  TGI: 33.4 µM
[39]
  TGI: > 100 µM
[40]
  TGI: > 100 µM
[41]
  TGI: 9.64 µM
[42]
  TGI: > 100 µM
[43]
  TGI: > 100 µM
[44]
  TGI: > 100 µM
[45]
  TGI: 58 µM
[46]
  TGI: > 100 µM
[47]
  TGI: > 100 µM

## COC(=O)[C@]12CC[C@@H](C)[C@H](C)[C@@H]1C1=CC[C@@H]3[C@@]4(C)C(C=O)=C[C@@](C)(COC(=O)/C=C/c5ccccc5)[C@@H]4[C@H](O)C[C@@]3(C)[C@]1(C)CC2
[1]
  GI50: 5.01 µM
  TGI: 42.7 µM
[2]
  GI50: 4.8 µM
  TGI: 23.7 µM
[3]
  GI50: 3.73 µM
  TGI: 22 µM
[4]
  GI50: 2.76 µM
  TGI: 9.95 µM
[48]
  GI50: 6.05 µM
  TGI: 63.9 µM
[49]
  GI50: 3.56 µM
  TGI: > 100 µM
[50]
  GI50: 2.39 µM
  TGI: > 100 µM
[5]
  GI50: 2.3 µM
  TGI: 5.33 µM
[51]
  GI50: 4.96 µM
  TGI: 25.9 µM
[6]
  GI50: 2.86 µM
  TGI: 11.5 µM
[7]
  GI50: 3.04 µM
  TGI: 7.75 µM
[8]
  GI50: 3.06 µM
  TGI: 13.7 µM
[9]
  GI50: 2.2 µM
  TGI: 5.36 µM
[52]
  GI50: 2.48 µM
  TGI: 5.97 µM
[10]
  GI50: 9.4 µM
  TGI: 32.1 µM
[11]
  GI50: 2.19 µM
  TGI: 9.1 µM
[12]
  GI50: 3.72 µM
  TGI: 33.8 µM
[13]
  GI50: 3.1 µM
  TGI: 10.2 µM
[14]
  GI50: 4.34 µM
  TGI: 66.4 µM
[15]
  GI50: 3.53 µM
  TGI: > 100 µM
[16]
  GI50: 3.58 µM
  TGI: 19.4 µM
[17]
  GI50: 1.77 µM
  TGI: 3.66 µM
[18]
  GI50: 3.33 µM
  TGI: 17.3 µM
[19]
  GI50: 1.99 µM
  TGI: 5.14 µM
[20]
  GI50: 2.37 µM
  TGI: 11.3 µM
[21]
  GI50: 4.36 µM
  TGI: 27.2 µM
[22]
  GI50: 3.04 µM
  TGI: 10.3 µM
[53]
  GI50: 2.09 µM
  TGI: 7.36 µM
[24]
  GI50: 2.36 µM
  TGI: 9.66 µM
[25]
  GI50: 2.99 µM
  TGI: 15.1 µM
[54]
  GI50: 2.96 µM
  TGI: 10.2 µM
[26]
  GI50: 4.47 µM
  TGI: 17.4 µM
[27]
  GI50: 3.64 µM
  TGI: 19.1 µM
[28]
  GI50: 2.35 µM
  TGI: 5.53 µM
[29]
  GI50: 3.16 µM
  TGI: > 100 µM
[30]
  GI50: 3.08 µM
  TGI: 13.6 µM
[31]
  GI50: 3.98 µM
  TGI: 30.3 µM
[32]
  GI50: 2.22 µM
  TGI: > 100 µM
[33]
  GI50: 1.59 µM
  TGI: 5.73 µM
[34]
  GI50: 1.79 µM
  TGI: 4.45 µM
[55]
  GI50: 3.43 µM
  TGI: 48.3 µM
[35]
  GI50: 2.06 µM
  TGI: 5.78 µM
[36]
  GI50: 3.78 µM
  TGI: 17.5 µM
[37]
  GI50: 3.21 µM
  TGI: 12.8 µM
[56]
  GI50: 2.7 µM
  TGI: 7.63 µM
[38]
  GI50: 2.2 µM
  TGI: 5.92 µM
[39]
  GI50: 16.5 µM
  TGI: 97.9 µM
[40]
  GI50: 3.8 µM
  TGI: 26.5 µM
[57]
  GI50: 6.47 µM
  TGI: > 100 µM
[41]
  GI50: 3.37 µM
  TGI: 31.5 µM
[58]
  GI50: 2.29 µM
  TGI: 6.76 µM
[59]
  GI50: 3.68 µM
  TGI: 18.8 µM
[42]
  GI50: 4.4 µM
  TGI: 84.1 µM
[43]
  GI50: 6.74 µM
  TGI: 39.3 µM
[44]
  GI50: 3.75 µM
  TGI: 16.2 µM
[45]
  GI50: 2.36 µM
  TGI: 6.82 µM
[46]
  GI50: 2.49 µM
  TGI: 8.48 µM
[47]
  GI50: 3.28 µM
  TGI: 20.2 µM

## COc1cccc(-c2c(-c3ccccc3)[nH]c(C)c2C(=O)ONC(=O)c2ccccc2)c1
[1]
  TGI: 15.5 µM
[2]
  TGI: 28.5 µM
[3]
  TGI: 9.59 µM
[4]
  TGI: 10.9 µM
[48]
  TGI: 18.7 µM
[49]
  TGI: 11.3 µM
[50]
  TGI: > 27.3 µM
[5]
  TGI: 32.6 µM
[51]
  TGI: 11.8 µM
[6]
  TGI: 23.8 µM
[7]
  TGI: 27.4 µM
[8]
  TGI: 15 µM
[9]
  TGI: 26.1 µM
[52]
  TGI: 4.37 µM
[10]
  TGI: 10 µM
[11]
  TGI: 4.65 µM
[12]
  TGI: 24 µM
[13]
  TGI: > 45.2 µM
[14]
  TGI: 3.18 µM
[15]
  TGI: 10.4 µM
[16]
  TGI: 32.4 µM
[17]
  TGI: 3.91 µM
[18]
  TGI: 20 µM
[19]
  TGI: 28.4 µM
[20]
  TGI: 24 µM
[21]
  TGI: 22.9 µM
[22]
  TGI: 13.7 µM
[53]
  TGI: 18.2 µM
[24]
  TGI: 30.7 µM
[25]
  TGI: 25.9 µM
[54]
  TGI: 11.4 µM
[26]
  TGI: 14.2 µM
[27]
  TGI: 26 µM
[28]
  TGI: 22.8 µM
[29]
  TGI: > 24.5 µM
[30]
  TGI: 26.2 µM
[31]
  TGI: 19.1 µM
[32]
  TGI: 23.9 µM
[33]
  TGI: 29.3 µM
[34]
  TGI: 17.1 µM
[55]
  TGI: 22 µM
[35]
  TGI: 7.64 µM
[36]
  TGI: 18.4 µM
[37]
  TGI: 23.6 µM
[56]
  TGI: 30.4 µM
[38]
  TGI: 23.9 µM
[39]
  TGI: 29.8 µM
[40]
  TGI: 12.8 µM
[57]
  TGI: 23.8 µM
[41]
  TGI: 18.9 µM
[58]
  TGI: 15.5 µM
[59]
  TGI: 40.5 µM
[42]
  TGI: 23.9 µM
[43]
  TGI: 22.1 µM
[44]
  TGI: 11.4 µM
[45]
  TGI: 26.6 µM
[46]
  TGI: 26.9 µM
[47]
  TGI: 3.49 µM
